Our source for the IC50 values is US20160052937A1, “Tetrahydroimidazo[1,5-d][1,4]oxazepine compound” (Eisai R&D Management Co., Ltd., priority 2014, published 2016).

Each structure is given as a SMILES string.

The target in this assay is T1, human metabotropic glutamate receptor 2 (mGluR2) (Homo sapiens, UniProt Q14416).
T1 construct: expressed in transfected cells; co-expressing human SLC1A3), cell membrane fraction
T1 sequence (Q14416 19-872): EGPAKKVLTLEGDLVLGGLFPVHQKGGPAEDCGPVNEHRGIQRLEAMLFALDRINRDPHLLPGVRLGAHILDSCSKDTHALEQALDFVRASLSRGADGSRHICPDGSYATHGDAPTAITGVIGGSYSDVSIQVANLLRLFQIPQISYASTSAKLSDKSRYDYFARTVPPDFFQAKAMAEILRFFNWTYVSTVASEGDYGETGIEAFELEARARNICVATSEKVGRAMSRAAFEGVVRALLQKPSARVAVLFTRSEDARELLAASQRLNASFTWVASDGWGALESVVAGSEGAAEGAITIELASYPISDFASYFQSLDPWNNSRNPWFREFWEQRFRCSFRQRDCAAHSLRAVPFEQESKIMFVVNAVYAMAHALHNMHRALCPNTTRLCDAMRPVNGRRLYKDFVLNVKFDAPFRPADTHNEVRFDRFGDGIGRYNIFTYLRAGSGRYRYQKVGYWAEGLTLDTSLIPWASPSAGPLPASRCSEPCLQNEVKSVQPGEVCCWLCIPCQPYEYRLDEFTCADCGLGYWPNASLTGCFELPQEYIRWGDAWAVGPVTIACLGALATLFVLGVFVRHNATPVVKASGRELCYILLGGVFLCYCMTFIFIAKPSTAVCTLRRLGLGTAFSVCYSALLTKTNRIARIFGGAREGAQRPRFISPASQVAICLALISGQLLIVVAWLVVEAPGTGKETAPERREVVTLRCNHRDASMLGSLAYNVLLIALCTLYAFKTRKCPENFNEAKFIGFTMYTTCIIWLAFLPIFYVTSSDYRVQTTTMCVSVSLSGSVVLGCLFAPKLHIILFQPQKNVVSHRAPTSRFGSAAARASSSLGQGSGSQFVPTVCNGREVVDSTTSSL
Description: [35S]GTPγS binding assay (Affinity to mGluR2). Type of assay: biochemical. The note with it: cell membrane fraction of HEK293 cells stably expressing human mGluR2; glutamic acid 10 μM. The procedure:
(Preparation of Cell Membrane Fraction of HEK293 Cells Stably Expressing Human Metabotropic Glutamate Receptor 2 (mGluR2))
HEK293 cells stably expressing human mGluR2 and human glutamate transporter SLC1A3 were cultured in a Dulbecco's modified Eagle's medium with 10% fetal bovine serum (50 units/mL of penicillin, 50 μg/mL of streptomycin, 60 μg/mL of geneticin, 400 μg/mL of hygromycin B and 2 mM of glutamine) at 37° C. under 5% CO2. Confluent cell cultures were washed twice with PBS(−), and then scraped off with a cell scraper, and subjected to centrifugal separation at 4° C. and 1500 rpm for 5 minutes for collecting cells. The centrifuged sediment (cell pellet) was homogenized in a 20 mM HEPES buffer containing 10 mM EDTA (pH 7.4) by using sonicator and centrifuged at 4° C. and 1500×g for 30 minutes. The supernatant (soluble fraction) was subjected to the centrifugal separation at 4° C. and 40,000×g for 30 minutes, and thus, insoluble fraction was obtained. After additional centrifugally washing the obtained fraction with 20 mM HEPES buffer containing 10 mM EDTA (pH 7.4), the pellet was centrifugally suspended with a 20 mM HEPES buffer containing 0.1 mM EDTA, and the cell membrane fraction was obtained by the centrifugal separation at 4° C. and 40,000×g for 30 minutes. The thus obtained cell membrane fraction was suspended in a 20 mM HEPES buffer containing 0.1 mM EDTA in a protein concentration of 3 mg/mL, which was stored at −80° C.
([^35S]GTPγS binding assay)
The frozen cell membrane fraction prepared as described above was thawed before use, and the resultant was diluted with a buffer for a binding assay (final concentrations: 20 mM HEPES, 100 mM NaCl, 1 mM MgCl2, 3 μM GDP, 300 μg/mL saponin, 0.1% BSA). The compound of each example was added to a cell membrane fraction containing 1.8 to 3 μg/assay of membrane protein on a plate, followed by incubation at room temperature for 30 minutes. Thereafter, with glutamic acid (in a final concentration of 10 μM) added thereto, incubation was performed at room temperature for 15 minutes, and thereafter, [^35S]GTPγS (in a final concentration of 0.8 kBq) and 588 μg WGA-SPA beads were added thereto, followed by incubation at room temperature for 1 hour. After the incubation, the plate was subjected to the centrifugal separation at 2,500 rpm and room temperature, and then, membrane cell binding radioactivity was measured with a top count.
A [^35S]GTPγS binding amount obtained by performing the above-described reaction in the absence of glutamic acid was defined as nonspecific binding, and a difference from a [^35S]GTPγS binding amount obtained in the presence of glutamic acid was defined as specific binding. On the basis of ratios of inhibiting the specific binding at various concentrations of the compounds of the respective examples, inhibition curves were obtained. Concentrations of the compounds of the respective examples at which the specific [^35S]GTPγS binding amount was suppressed by 50% (IC50 values) were calculated on the basis of the inhibition curves and shown in Table 3.
(Binding of GTPγS marks nucleotide exchange on a G protein.)
The compound `C[C@@H]1Cn2c(-c3ccc(OC(F)F)cc3)nc(-c3ccc(S(=O)(=O)NC4CCC4)cc3)c2CCO1` [Example 24] gave an IC50 of 2.7 nM. Then `CC(C)(C)NS(=O)(=O)c1ccc(-c2nc(-c3ccc(F)cc3)n3c2CCO[C@H](CF)C3)cc1` [Example 41], with 2.1 nM; and `C[C@@H]1Cn2c(-c3ccc(OCF)cc3)nc(-c3ccc(S(=O)(=O)NC4CC4)cc3)c2CCO1` [Example 18], with 3.6 nM; and `CCOc1ccc(-c2nc(-c3ccc(S(=O)(=O)NC(C)(C)C)cc3)c3n2C[C@@H](C)OCC3)cc1` [Example 7], with 3.6 nM.

Turning to `O=S(=O)(NC1CCC1)c1ccc(-c2nc(-c3ccc(F)cc3)n3c2CCO[C@H](CF)C3)cc1` [Example 38], the IC50 stood at 2.2 nM. As for `CC1(NS(=O)(=O)c2ccc(-c3nc(-c4ccc(OCF)cc4)n4c3CCO[C@H](CF)C4)cc2)CCC1` [Example 57], the IC50 turned out to be 4.1 nM. Compared with the last compound, the IC50 is about 1.9-fold higher. Then `CCNS(=O)(=O)c1ccc(-c2nc(-c3ccc(OCF)cc3)n3c2CCO[C@H](C)C3)cc1` [Example 21], with 11.2 nM. `CC1Cn2c(-c3ccc(OC(F)F)cc3)nc(-c3ccc(S(=O)(=O)NC4(C)CCC4)cc3)c2CCO1` (centres unmarked) [Example 27] had a half-inhibitory concentration (IC50) of 2.3 nM.

`CCOc1ccc(-c2nc(-c3ccc(S(=O)(=O)NC(C)C)cc3)c3n2C[C@@H](C)OCC3)cc1` [Example 6] yielded an IC50 of 3.2 nM. In the case of `CNS(=O)(=O)c1ccc(-c2nc(-c3ccc(OC(F)F)cc3)n3c2CCO[C@H](C)C3)cc1` [Example 25], the IC50 stood at 3.1 nM.

`COc1ccc(-c2nc(-c3ccc(S(=O)(=O)NC4CCC4)cc3)c3n2C[C@@H](CF)OCC3)cc1` [Example 44] had an IC50 of 2.3 nM. Then `CCNS(=O)(=O)c1ccc(-c2nc(-c3ccc(OC)cc3)n3c2CCO[C@H](CF)C3)cc1` [Example 46], with 6 nM; and `Cc1ccc(-c2nc(-c3ccc(S(=O)(=O)NC(C)(C)C)cc3)c3n2C[C@@H](C)OCC3)cc1F` [Example 64], with 4.5 nM; and `CCOc1ccc(-c2nc(-c3ccc(S(=O)(=O)NC4(C)CCC4)cc3)c3n2C[C@@H](C)OCC3)cc1` [Example 36], with 1.3 nM.

On to `CCOc1ccc(-c2nc(-c3ccc(S(=O)(=O)NC4CCC4)cc3)c3n2C[C@@H](C)OCC3)cc1` [Example 33], for which the IC50 was 3 nM. As for `O=S(=O)(NC1CCC1)c1ccc(-c2nc(-c3ccc(OCF)cc3)n3c2CCO[C@H](CF)C3)cc1` [Example 58], the IC50 was found to be 15.3 nM. In turn, `C[C@@H]1Cn2c(-c3ccc(F)cc3)nc(-c3ccc(S(=O)(=O)NC(C)(C)C)cc3)c2CCO1` [Example 13] returned an IC50 of 4 nM. For the compound `C[C@@H]1Cn2c(-c3ccc(F)cc3)nc(-c3ccc(S(=O)(=O)NC4CC4)cc3)c2CCO1` [Example 16], the IC50 is 4.2 nM. The IC50 values of the last two compounds are within 1.5-fold of each other. Then `CC1(NS(=O)(=O)c2ccc(-c3nc(-c4ccc(OC(F)F)cc4)n4c3CCO[C@H](CF)C4)cc2)CCC1` [Example 61], with 3.7 nM; and `CC(C)NS(=O)(=O)c1ccc(-c2nc(-c3ccc(F)cc3)n3c2CCO[C@H](CF)C3)cc1` [Example 40], with 2.6 nM; and `COc1ccc(-c2nc(-c3ccc(S(=O)(=O)NC(C)C)cc3)c3n2C[C@@H](CF)OCC3)cc1` [Example 43], with 3.1 nM. Then `C[C@@H]1Cn2c(-c3ccc(OC(F)F)cc3)nc(-c3ccc(S(=O)(=O)NC4CC4)cc3)c2CCO1` [Example 23], with 1.6 nM; and `CCNS(=O)(=O)c1ccc(-c2nc(-c3ccc(F)cc3)n3c2CCO[C@H](C)C3)cc1` [Example 15], with 4.1 nM; and `C[C@@H]1Cn2c(-c3ccc(OCF)cc3)nc(-c3ccc(S(=O)(=O)NC(C)(C)C)cc3)c2CCO1` [Example 5], with 2.7 nM. Next, `CCOc1ccc(-c2nc(-c3ccc(S(=O)(=O)NC4CC4)cc3)c3n2C[C@@H](CF)OCC3)cc1` [Example 49]: 11.2 nM; `CCNS(=O)(=O)c1ccc(-c2nc(-c3ccc(OC(F)F)cc3)n3c2CCO[C@H](CF)C3)cc1` [Example 59]: 3.9 nM.

The term IC50 denotes the concentration that gives 50% inhibition. Low readings indicate inhibition by little substance, high ones a need for much substance.
